Measured values as given in ChEMBL document CHEMBL4376810, “Bioactive Secondary Metabolites from Bacillus subtilis: A Comprehensive Review” (2019).
Converted amounts (≈) assume the structure as drawn. Values belong to the compound of their own block, whether it stands above or below them. Non-standard residues stand in square brackets, D forms with d. Residues, ends and D or L forms follow the SMILES beside them. *: point of attachment. Tridecanoyl(3R-OH,11-Me) = CCC(C)CCCCCCC[C@@H](O)CC(=O)*; X1 = CCC(C)CC(C)CCCCC[C@@H](O)CC(=O)*

Experiments:
Staphylococcus aureus [1] = assay: Antibacterial activity against methicillin-resistant Staphylococcus aureus; format: functional
Botrytis cinerea = assay: Antifungal activity against Botrytis cinerea assessed as inhibition of fungal growth incubated for 48 hrs by standard broth dilution assay; format: functional
Rhizoctonia solani = assay: Antifungal activity against Rhizoctonia solani assessed as inhibition of fungal growth incubated for 48 hrs by standard broth dilution assay; format: functional
Colletotrichum acutatum = assay: Antifungal activity against Colletotrichum acutatum assessed as inhibition of fungal growth incubated for 48 hrs by standard broth dilution assay; format: functional
Micrococcus luteus = assay: Antibacterial activity against Micrococcus luteus incubated for 24 hrs by broth microdilution method; format: functional
Bacillus pumilus = assay: Antibacterial activity against Bacillus pumilus incubated for 24 hrs by broth microdilution method; format: functional
Staphylococcus aureus [2] = assay: Antibacterial activity against methicillin-resistant Staphylococcus aureus incubated for 24 hrs by broth microdilution method; format: functional
Morganella morganii = assay: Antibacterial activity against streptomycin-resistant Morganella morganii incubated for 18 hrs by agar dilution assay; format: functional
Salmonella typhimurium = assay: Antibacterial activity against Salmonella typhimurium incubated for 18 hrs by agar dilution assay; format: functional, Salmonella enterica subsp. enterica serovar Typhimurium; details: Salmonella enterica
Staphylococcus aureus [3] = assay: Antibacterial activity against methicillin-resistant Staphylococcus aureus incubated for 18 hrs by agar dilution assay; format: functional
Staphylococcus aureus [4] = assay: Antibacterial activity against Staphylococcus aureus; format: functional
[5] = system: Staphylococcus epidermidis; assay: Antibacterial activity against Staphylococcus epidermidis by broth microdilution method; format: functional
Streptococcus pneumoniae = assay: Antibacterial activity against Streptococcus pneumoniae by broth microdilution method; format: functional
Staphylococcus aureus [6] = assay: Antibacterial activity against oxacillin-resistant Staphylococcus aureus by broth microdilution method; format: functional

SMILES: CCCCCCCCCCCCCC(=O)N[C@@H]1C(=O)N[C@H](CCC(N)=O)C(=O)N[C@@H](CC(=O)O)C(=O)NCC(=O)N[C@@H](CC(N)=O)C(=O)N[C@@H](CC(=O)O)C(=O)NCC(=O)N[C@@H](Cc2ccc(O)cc2)C(=O)N[C@@H](C(C)C)C(=O)OC1C (stereo partly drawn)
MIC (Staphylococcus aureus [1]): 20 µg/mL (≈ 17.2 µM)

SMILES: CCCCCCCCCCCCC(=O)N[C@@H]1C(=O)N[C@H](CCC(N)=O)C(=O)N[C@@H](CC(=O)O)C(=O)NCC(=O)N[C@@H](CC(N)=O)C(=O)N[C@@H](CC(=O)O)C(=O)NCC(=O)N[C@@H](Cc2ccc(O)cc2)C(=O)N[C@@H](C(C)C)C(=O)OC1C (stereo partly drawn)
MIC (Staphylococcus aureus [1]): 20 µg/mL (≈ 17.4 µM)

MIC (Botrytis cinerea): 4 to 8 µg/mL (≈ 3.84 to 7.69 µM)
MIC (Rhizoctonia solani): 4 to 8 µg/mL (≈ 3.84 to 7.69 µM)
MIC (Colletotrichum acutatum): 4 to 8 µg/mL (≈ 3.84 to 7.69 µM)
SMILES: CCC(C)CCCCCCC[C@@H](O)CC(=O)N[C@@H](CCC(=O)O)C(=O)N[C@@H](CC(C)C)C(=O)N[C@@H](CC(C)C)C(=O)N[C@@H](C(=O)N[C@@H](CC(=O)O)C(=O)N[C@@H](CC(C)C)C(=O)N[C@@H](CC(C)C)C(=O)O)C(C)C (stereo partly drawn) ({Tridecanoyl(3R-OH,11-Me)}-ELL[dV]DLL-OH)

SMILES: CC1=CC2C(OC3OC(C)C(O)C(=O)C3O)CCCC2C2C(=O)OC(=O)/C(C)=C3/CC(O)C/C3=C/2C1/C=C/C=C/C=C(\C)CC(C)CC(O)C(C)C(=O)O (stereo not drawn)
MIC (Micrococcus luteus): < 7 µg/mL
MIC (Bacillus pumilus): < 7 µg/mL
MIC (Staphylococcus aureus [2]): < 7 µg/mL

MIC (Botrytis cinerea): 4 to 8 µg/mL (≈ 3.79 to 7.59 µM)
MIC (Rhizoctonia solani): 4 to 8 µg/mL (≈ 3.79 to 7.59 µM)
MIC (Colletotrichum acutatum): 4 to 8 µg/mL (≈ 3.79 to 7.59 µM)
SMILES: CCC(C)CC(C)CCCCC[C@@H](O)CC(=O)N[C@@H](CCC(=O)O)C(=O)N[C@@H](CC(C)C)C(=O)N[C@@H](CC(C)C)C(=O)N[C@@H](C(=O)N[C@@H](CC(=O)O)C(=O)N[C@@H](CC(C)C)C(=O)N[C@@H](CC(C)C)C(=O)O)C(C)C (stereo partly drawn) (X1-ELL[dV]DLL-OH)

SMILES: CC1=CC2C(OC3OC(C)C(O)C(=O)C3O)CCCC2C2C(=O)OC(=O)/C=C3/CC(O)C/C3=C/2C1/C=C/C=C/C=C(\C)CC(C)CC(O)C(C)C(=O)O (stereo not drawn)
MIC (Micrococcus luteus): < 7 µg/mL
MIC (Bacillus pumilus): < 7 µg/mL
MIC (Staphylococcus aureus [2]): < 7 µg/mL

SMILES: CC1=CC2C(OC3OC(C)C(O)C(O)C3O)CCCC2C2C(=O)OC(=O)/C(C)=C3/CC(O)C/C3=C/2C1/C=C/C=C/C=C(\C)CC(C)CC(O)C(C)C(=O)O (stereo not drawn)
MIC (Micrococcus luteus): < 7 µg/mL
MIC (Bacillus pumilus): < 7 µg/mL
MIC (Staphylococcus aureus [2]): < 7 µg/mL

SMILES: CCCCCCCCCCCC(=O)N[C@@H]1C(=O)N[C@H](CCC(N)=O)C(=O)N[C@@H](CC(=O)O)C(=O)NCC(=O)N[C@@H](CC(N)=O)C(=O)N[C@@H](CC(=O)O)C(=O)NCC(=O)N[C@@H](Cc2ccc(O)cc2)C(=O)N[C@@H](C(C)C)C(=O)OC1C (stereo partly drawn)
MIC (Staphylococcus aureus [1]): 20 µg/mL (≈ 17.7 µM)

SMILES: C=C/C=C(\C)CCC1CCC/C=C\C=C(\C)C(OP(=O)(O)O)CCC\C=C/C=C\C=C\C=C\C(O)C(C)C(=C)CC(=O)O1 (stereo not drawn)
MIC (Morganella morganii): 2 to 32 µg/mL (≈ 3.25 to 52.1 µM)
MIC (Salmonella typhimurium): 2 to 32 µg/mL (≈ 3.25 to 52.1 µM)
MIC (Staphylococcus aureus [3]): 2 to 32 µg/mL (≈ 3.25 to 52.1 µM)

SMILES: CC(C)C[C@H](NC(=O)[C@@H](O)[C@@H](O)[C@@H](N)CC(N)=O)[C@@H]1Cc2cccc(O)c2C(=O)O1
MIC (Staphylococcus aureus [4]): < 1 µg/mL

SMILES: CC(C)C[C@H](NC(=O)[C@H]1OCN[C@@H](CC(N)=O)[C@@H]1O)[C@@H]1Cc2cccc(O)c2C(=O)O1
MIC [5]: 0.5 to 2 µg/mL (≈ 1.15 to 4.59 µM)
MIC (Streptococcus pneumoniae): 0.5 to 2 µg/mL (≈ 1.15 to 4.59 µM)
MIC (Staphylococcus aureus [6]): 0.5 to 2 µg/mL (≈ 1.15 to 4.59 µM)

SMILES: C=C/C=C(\C)CCC1CCC/C=C\C=C(\C)C(OP(=O)(O)O)CCC\C=C/C=C\C=C\C=C\CC(C)C(=C)CC(=O)O1 (stereo not drawn)
MIC (Morganella morganii): 2 to 32 µg/mL (≈ 3.34 to 53.4 µM)
MIC (Salmonella typhimurium): 2 to 32 µg/mL (≈ 3.34 to 53.4 µM)
MIC (Staphylococcus aureus [3]): 2 to 32 µg/mL (≈ 3.34 to 53.4 µM)
